Test results as given in US4474748A, “Medicaments potentiated with phenyl alkanols” (priority 1981, dated 1984).
Like-named read-outs stand apart in the source and are kept apart here.

How the values were obtained:
Staphylococcus aureus = test: Topical staphylococcal infection in rats; assay type: in vivo, Staphylococcus aureus in rats; conditions: for Abscess formation (share of animals): topical staphylococcal infection
Excerpt: In tests and operative techniques carried out according to the procedure set forth in F. Goldschmidt, Reproducible Topical Staphylococcal Infection in Rats, Applied Microbiology, 23, No. 1, p.

P. aeruginosa = test: Bactericidal (killing) efficacy in the presence of citrated human blood, P. aeruginosa; assay type: cell-based; conditions: Table I, 40% ethanol
Description: (§1) A series of the following four solutions was prepared in accordance with the foregoing procedure: […]

S. aureus = test: Bactericidal (killing) efficacy in the presence of citrated human blood, S. aureus; assay type: cell-based; conditions: Table II
Description: as §1

C. acnes = test: Bactericidal (killing) efficacy in the presence of citrated human blood, C. acnes; assay type: cell-based; conditions: Table II
Excerpt: In a similar manner, additional antimicrobial compositions of this invention have been tested and a summary of the test results appears in Table II.

intact human skin = conditions: alcohol potentiators 10%
Description: To illustrate the enhanced penetration of the topical compositions of the invention, the following formulation was employed to prepare compositions which were then tested in a standardized skin blanching test wherein the degree of blanching corresponds to the degree of penetration.

C. albicans = test: Killing efficacy in the presence of citrated human blood, C. albicans; assay type: cell-based
Description: as §1

[1] = preparation containing 20% benzocaine; intact skin; cited from earlier work
[2] = stratum corneum; previous studies; cited from earlier work

In the case of CCC(O)C1CCCCC1 (stereo not drawn) [1-Cyclohexyl-1-propanol, 1-cyclohexyl-1-propanol], the “Recoverable Staphylococcus aureus” value (Staphylococcus aureus; 3.0%, alone, rats) is reported as ≥ 10^6 cells per gram of excised body wall and the “Abscess formation (share of animals)” value (Staphylococcus aureus; rats) is reported as 100%.
For CCCC(C)C(C)(C)O (stereo not drawn) [2,3-Dimethyl-2-hexanol, 2,3-dimethyl-2-hexanol], the “Number of Cells Survived” value (P. aeruginosa; contact time 1 minute) was 8.5 × 10^6 cells, the “Number of Cells Survived” value (P. aeruginosa; contact time 10 minutes) was 7.6 × 10^6 cells and the “Number of Cells Survived” value (P. aeruginosa; contact time 30 minutes) was 5.1 × 10^6 cells.
For OCCC1CCCCC1 [2-Cyclohexylethanol, 2-cyclohexylethanol], the “Number of Cells Survived” value (P. aeruginosa; contact time 1 minute) was 1.1 × 10^6 cells, the “Number of Cells Survived” value (P. aeruginosa; contact time 10 minutes) was 7.8 × 10^4 cells and the “Number of Cells Survived” value (P. aeruginosa; contact time 30 minutes) was 4.8 × 10^4 cells.
For O=C(Nc1ccc(Cl)cc1)Nc1ccc(Cl)c(Cl)c1 [3,4,4'-Chlorocarbanilide], the “Number of Cells Survived” value (S. aureus; 0.05%, 1 minute) was 6.1 × 10^7 cells, the “Number of Cells Survived” value (S. aureus; 0.05%, 10 minutes) was 5.2 × 10^7 cells and the “Number of Cells Survived” value (S. aureus; 0.05%, 30 minutes) was 3.0 × 10^7 cells.
In the case of O=c1[nH]c(=O)n([C@H]2C[C@H](O)[C@@H](CO)O2)cc1I [5-iodo-2-deoxyuridine], the “Number of Cells Survived” value (S. aureus; 0.2%, 1 minute) is reported as 30 × 10^7 cells, the “Number of Cells Survived” value (S. aureus; 0.2%, 10 minutes) is reported as 30 × 10^7 cells and the “Number of Cells Survived” value (S. aureus; 0.2%, 30 minutes) is reported as 30 × 10^7 cells.
With CCCCCCCCCCCCC[N+](C)(C)Cc1ccccc1 [Benzalkonium chloride] the “Number of Cells Survived” value (S. aureus; 0.05%, 1 minute) was 9.0 × 10^5 cells, the “Number of Cells Survived” value (S. aureus; 0.05%, 10 minutes) was 1.0 × 10^5 cells and the “Number of Cells Survived” value (S. aureus; 0.05%, 30 minutes) was 2.9 × 10^3 cells.
With N[C@@H]1CON=C1O [Cycloserine] the “Number of Cells Survived” value (S. aureus; 0.0125%, 1 minute) was 60 × 10^7 cells, the “Number of Cells Survived” value (S. aureus; 0.0125%, 10 minutes) was 60 × 10^7 cells and the “Number of Cells Survived” value (S. aureus; 0.0125%, 30 minutes) was 60 × 10^7 cells.
In the case of Cc1cc(N)c2ccccc2[n+]1CCCCCCCCCC[n+]1c(C)cc(N)c2ccccc21 [Dequalinium chloride], the “Number of Cells Survived” value (C. acnes; 0.00125%, 1 minute) is reported as 26 × 10^5 cells, the “Number of Cells Survived” value (C. acnes; 0.00125%, 10 minutes) is reported as 14 × 10^2 cells and the “Number of Cells Survived” value (C. acnes; 0.00125%, 30 minutes) is reported as 30 cells.
For CCCCCCCCCCCC[N+](C)(C)CCOc1ccccc1 [Domiphen bromide], the “Animals from which S. aureus could be recovered” value (Staphylococcus aureus; 10^5 or more cells per gram of excised body wall) was 82.3% and the “Abscess formation (share of animals)” value (Staphylococcus aureus; rats) was 82.3%.
In the case of CNC[C@H](O)c1ccc(O)c(O)c1 [Epinephrine (E)], the “Skin blanching score (penetration of epinephrine)” value (shortened to “Skin blanching score”) (intact human skin; 10 min after application) is reported as 0, the “Skin blanching score” value (intact human skin; 20 min after application) is reported as 0-1 and the “Skin blanching score” value (intact human skin; 30 min after application) is reported as 0. The “Skin blanching score” value (intact human skin; 40 min after application) was 0, the “Skin blanching score” value (intact human skin; 50 min after application) was 0 and the “Skin blanching score” value (intact human skin; 60 min after application) was 0.
With CC[C@H]1OC(=O)[C@H](C)[C@@H](O[C@H]2C[C@@](C)(OC)[C@@H](O)[C@H](C)O2)[C@H](C)[C@@H](O[C@@H]2O[C@H](C)C[C@H](N(C)C)[C@H]2O)[C@](C)(O)C[C@@H](C)C(=O)[C@H](C)[C@@H](O)[C@]1(C)O [Erythromycin] the “Number of Cells Survived” value (S. aureus; 0.025%, 1 minute) was 4.9 × 10^7 cells, the “Number of Cells Survived” value (S. aureus; 0.025%, 10 minutes) was 4.6 × 10^7 cells and the “Number of Cells Survived” value (S. aureus; 0.025%, 30 minutes) was 4.3 × 10^ 7 cells. For the same compound, the “Number of Cells Survived” value (C. albicans; Table II, 0.025%, 1 minute) was 7.2 × 10^8 cells, the “Number of Cells Survived” value (C. albicans; Table II, 0.025%, 10 minutes) was 7.1 × 10^8 cells and the “Number of Cells Survived” value (C. albicans; Table II, 0.025%, 30 minutes) was 9.2 × 10^7 cells. For the same compound, the “Number of Cells Survived” value (C. acnes; 0.0125%, 1 minute) was 22 × 10^5 cells, the “Number of Cells Survived” value (C. acnes; 0.0125%, 10 minutes) was 21 × 10^5 cells and the “Number of Cells Survived” value (C. acnes; 0.0125%, 30 minutes) was 18 × 10^5 cells.
For COC1=CC(=O)C[C@@H](C)[C@]12Oc1c(Cl)c(OC)cc(OC)c1C2=O [Griseofulvin], the “Number of Cells Survived” value (C. acnes; 0.0125%, 1 minute) was 94 × 10^5 cells, the “Number of Cells Survived” value (C. acnes; 0.0125%, 10 minutes) was 99 × 10^5 cells and the “Number of Cells Survived” value (C. acnes; 0.0125%, 30 minutes) was 92 × 10^5 cells.
For N=C(NCCCCCCNC(=N)NC(=N)Nc1ccc(Cl)cc1)NC(=N)Nc1ccc(Cl)cc1 [Hibitane], the “Number of Cells Survived” value (C. acnes; 0.0125%, 1 minute) was 45 × 10^6 cells, the “Number of Cells Survived” value (C. acnes; 0.0125%, 10 minutes) was 51 × 10^5 cells and the “Number of Cells Survived” value (C. acnes; 0.0125%, 30 minutes) was 0 cells.
With CO[C@H]1/C=C/O[C@@]2(C)Oc3c(C)c(O)c4c(O)c(c(/C=N/N5CCN(C)CC5)c(O)c4c3C2=O)NC(=O)/C(C)=C\C=C\[C@H](C)[C@H](O)[C@@H](C)[C@@H](O)[C@@H](C)[C@H](OC(C)=O)[C@@H]1C [Rifampicin] the “Number of Cells Survived” value (C. acnes; 0.0125%, 1 minute) was 17 × 10^6 cells, the “Number of Cells Survived” value (C. acnes; 0.0125%, 10 minutes) was 17 × 10^6 cells and the “Number of Cells Survived” value (C. acnes; 0.0125%, 30 minutes) was 13 × 10^6 cells.
In the case of O=C(Nc1ccc(Br)cc1)c1cc(Br)cc(Br)c1O [Temasept IV, 3,4',5tribromosalicylanilide], the “Number of Cells Survived” value (S. aureus; 0.05%, 1 minute) is reported as 4.2 × 10^8 cells, the “Number of Cells Survived” value (S. aureus; 0.05%, 10 minutes) is reported as 4.0 × 10^8 cells and the “Number of Cells Survived” value (S. aureus; 0.05%, 30 minutes) is reported as 1.2 × 10^8 cells.
For CN(C)C1C(=O)C(C(N)=O)=C(O)C2(O)C(=O)C3=C(O)c4c(O)cccc4C(C)(O)C3CC12 (stereo not drawn) [Tetracycline], the “Number of Cells Survived” value (S. aureus; 0.05%, 1 minute) was 4.2 × 10^8 cells, the “Number of Cells Survived” value (S. aureus; 0.05%, 10 minutes) was 4.1 × 10^8 cells and the “Number of Cells Survived” value (S. aureus; 0.05%, 30 minutes) was 3.8 × 10^7 cells. The “Number of Cells Survived” value (C. albicans; Table II, 0.05%, 1 minute) was 4.3 × 10^7 cells, the “Number of Cells Survived” value (C. albicans; Table II, 0.05%, 10 minutes) was 3.9 × 10^7 cells and the “Number of Cells Survived” value (C. albicans; Table II, 0.05%, 30 minutes) was 3.6 × 10^7 cells.
With [O-][n+]1ccccc1[S-].[O-][n+]1ccccc1[S-].[Zn+2] [Zn--omadine] the “Number of Cells Survived” value (C. albicans; Table I, contact time 1 minute, human blood, 40% ethanol) was 9 × 10^8 cells, the “Number of Cells Survived” value (C. albicans; Table I, contact time 10 minutes, human blood, 40% ethanol) was 8.0 × 10^8 cells and the “Number of Cells Survived” value (C. albicans; Table I, contact time 30 minutes, human blood, 40% ethanol) was 7 × 10^8 cells.
In the case of CCOC(=O)c1ccc(N)cc1 [benzocaine], the “Surface anesthesia” value [1] is given as “effective to cause surface anesthesia”.
In the case of C[S+](C)[O-] [dimethylsulfoxide (DMSO), dimethylsulfoxide], the “Absorption of topically applied drugs” value [2] is given as “can enhance the absorption of topically applied drugs through the stratum corneum”.
